This note sets out measurements from PubChem BioAssay (NCI).

Among the test systems are HCT-116 colon; 786-0 renal; LOX IMVI melanoma; M14 melanoma; OVCAR-5 ovarian; SF-268 CNS; HOP-92 NSCLC; U251 CNS; OVCAR-8 ovarian; SNB-19 CNS.
Holding throughout (assay): NCI-60 cell line screen, 48 h

Each structure is given as a SMILES string.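 Following 48 hours of exposure in 96-well plates, responses at five concentrations were used to interpolate endpoints linearly. The concentration for 50% growth inhibition is given as GI50. TGI is the concentration that stops growth completely.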

As to `CCCCNC(=S)Nn1c(-c2ccccc2)nc2ccccc2c1=O`, the TGI in the test with HCT-116 colon, in the test on 786-0 renal, with LOX IMVI melanoma, in the test on M14 melanoma, with OVCAR-5 ovarian and in the test on SF-268 CNS was above 100 µM each time. Moreover, the TGI in the test with HOP-92 NSCLC, in the test on U251 CNS and in the test on OVCAR-8 ovarian was above 100 µM throughout.

Regarding `Cc1ccc(S(=O)(=O)NCCCN(CCCNS(=O)(=O)c2ccc(C)cc2)S(=O)(=O)c2ccc(C)cc2)cc1`, the TGI in the test with HCT-116 colon, in the test on 786-0 renal, with LOX IMVI melanoma, in the test with M14 melanoma, in the test on SF-268 CNS and in the test on U251 CNS was above 100 µM in each case. Moreover, the TGI in the test on OVCAR-8 ovarian and in the test on SNB-19 CNS was above 100 µM each time.

Turning to `CN1CCC(O)C(CNC23CC4CC(CC(C4)C2)C3)C1` (stereo unspecified), the TGI with 786-0 renal, with LOX IMVI melanoma, with OVCAR-5 ovarian, in the test with SF-268 CNS, in the test on HOP-92 NSCLC and in the test on U251 CNS was above 100 µM each time. Also, the TGI with OVCAR-8 ovarian and in the test with SNB-19 CNS was above 100 µM throughout.

`CCOC(=O)C(C(=O)c1ccccc1-c1ccccc1C(=O)O)=P(c1ccccc1)(c1ccccc1)c1ccccc1`: the TGI in the test with HCT-116 colon was 42 µM; with 786-0 renal, above 100 µM; in the test with LOX IMVI melanoma, 40.8 µM; with M14 melanoma, above 100 µM; with SF-268 CNS, above 100 µM; in the test with U251 CNS, 36.8 µM. Moreover, the figures for the TGI with OVCAR-8 ovarian and with SNB-19 CNS were above 100 µM and 92 µM, respectively.

For `c1ccc([CH2][Sn]([CH2]c2ccccc2)([S]c2cccc3cccnc23)[S]c2cccc3cccnc23)cc1`, the GI50 in the test with HCT-116 colon is 0.165 µM; in the test with 786-0 renal, 0.314 µM; with LOX IMVI melanoma, 0.215 µM; in the test with M14 melanoma, 0.221 µM; with SF-268 CNS, 0.489 µM; in the test with U251 CNS it was 0.341 µM. The GI50 was 0.361 µM with OVCAR-8 ovarian and 0.853 µM in the test on SNB-19 CNS. Besides, the TGI in the test on HCT-116 colon came to 0.351 µM; with 786-0 renal it was 1.05 µM; in the test with LOX IMVI melanoma, 0.442 µM; in the test with M14 melanoma, 0.511 µM; in the test on SF-268 CNS it was 2.3 µM; with U251 CNS, 1.14 µM. Further, the values for the TGI in the test on OVCAR-8 ovarian and in the test on SNB-19 CNS were 1.4 µM and 2.07 µM, respectively.

On to `O=c1[nH]nc(-c2ccccc2)c(-c2ccccc2)c1-n1nc(-c2ccccc2)c2ccccc2c1=O`, for which the TGI in the test on HCT-116 colon, with 786-0 renal, with M14 melanoma, in the test with OVCAR-5 ovarian, in the test on SF-268 CNS and in the test on HOP-92 NSCLC was above 100 µM throughout. Moreover, the TGI with U251 CNS and in the test with OVCAR-8 ovarian was above 100 µM throughout.

As to `CC1CN(CCO)CC(C)O1` (stereo unspecified), the TGI with HCT-116 colon, in the test on 786-0 renal, in the test on M14 melanoma, in the test on OVCAR-5 ovarian, in the test with SF-268 CNS and in the test on HOP-92 NSCLC was above 100 µM in each case. Moreover, the TGI with U251 CNS, with OVCAR-8 ovarian and with SNB-19 CNS was above 100 µM throughout.

`CC(C)NC(=O)OCc1nnn2c1C(OC(=O)NC(C)C)CC2` (stereo unspecified): the TGI with HCT-116 colon, in the test on 786-0 renal, in the test on M14 melanoma, in the test on OVCAR-5 ovarian, in the test on HOP-92 NSCLC and in the test on U251 CNS was above 100 µM in each case. For the same molecule, the TGI in the test with OVCAR-8 ovarian and in the test with SNB-19 CNS was above 100 µM throughout.

For `FC(F)(F)c1ccc2nc(-c3nc(-c4ccccc4)n4ccccc34)[nH]c2c1`, the GI50 was 1.92 µM in the test on 786-0 renal; 17.7 µM with M14 melanoma; 6.77 µM with OVCAR-5 ovarian; 5.63 µM with SF-268 CNS; 3.66 µM in the test with HOP-92 NSCLC; 1.98 µM with U251 CNS. For the same molecule, the figures for the GI50 in the test with OVCAR-8 ovarian and in the test on SNB-19 CNS were 2.7 µM and 6.44 µM, respectively. Besides, the TGI with 786-0 renal is 3.56 µM; with M14 melanoma, above 100 µM; with OVCAR-5 ovarian, 47.2 µM; in the test with SF-268 CNS, above 100 µM; with HOP-92 NSCLC, 17.4 µM; in the test on U251 CNS, 4.03 µM. For the same molecule, the TGI is 7.68 µM in the test with OVCAR-8 ovarian and 20.8 µM with SNB-19 CNS.

With `C=C1C(=O)OC2C1C(OC(=O)/C(=C/C)COC(C)=O)CC1(CO1)C1C(OC(=O)/C(=C/C)CO)C=C(C)C21` (stereo unspecified), the TGI with HCT-116 colon turned out to be 2.98 µM; with 786-0 renal, 3.09 µM; in the test on LOX IMVI melanoma, 11.9 µM; in the test with M14 melanoma, 3.86 µM; in the test with OVCAR-5 ovarian, 25.9 µM; in the test on SF-268 CNS, 9.35 µM. In addition, the TGI came out at 35.1 µM in the test on U251 CNS, 25.3 µM in the test on OVCAR-8 ovarian and 13.9 µM with SNB-19 CNS.

With `CCOC(=O)c1cnc2ccc(Cl)cc2c1NCCCN(C)C`, the GI50 in the test on HCT-116 colon was 10.2 µM; in the test on 786-0 renal, 43 µM; with LOX IMVI melanoma it was 14.1 µM; with M14 melanoma it was 17.8 µM; in the test with OVCAR-5 ovarian, 22.2 µM; with SF-268 CNS it was 19.9 µM. In addition, the GI50 with HOP-92 NSCLC was 20.3 µM; with OVCAR-8 ovarian, 11.6 µM; in the test on SNB-19 CNS it was 51.1 µM. The TGI in the test on HCT-116 colon is above 100 µM; with 786-0 renal, above 100 µM; in the test on LOX IMVI melanoma, 34.1 µM; in the test on M14 melanoma, 33 µM; in the test on OVCAR-5 ovarian it was above 100 µM; in the test with SF-268 CNS, 94 µM. For the same molecule, the TGI in the test on HOP-92 NSCLC was 98.4 µM; in the test with OVCAR-8 ovarian it was 47 µM; in the test on SNB-19 CNS, above 100 µM.

For the molecule `CC(=O)Oc1c(-c2ccccc2)[nH]c2cc([N+](=O)[O-])c(/C(Cl)=C/c3ccccc3)cc12`, the TGI in the test on HCT-116 colon is 17.3 µM; with 786-0 renal it was 25.5 µM; in the test on M14 melanoma, 23.1 µM; in the test with OVCAR-5 ovarian, 17.7 µM; in the test on SF-268 CNS, above 100 µM; in the test on HOP-92 NSCLC, 18.3 µM. The results for the TGI in the test with U251 CNS, in the test on OVCAR-8 ovarian and in the test with SNB-19 CNS were 19.8 µM, 17.7 µM and 94.2 µM, respectively.
